Test results reported in the NIST ThermoML archive (doi:10.1021/je025538u).
± gives the expanded uncertainty stated by the source.

Experiments:
[1] = 101.33 kPa, Liquid
[2] = cn = amount concentration of the nth substance listed, in mol/dm3; conditions: 101.3 kPa, Liquid

Question: With CCC(C)O (centres undefined) [butan-2-ol] as the molecule, how does the mass density ([1]; 293.15 K) read?
Answer: 806.6 ± 1.5 kg/m3

Question: What about the viscosity ([1]; 293.15 K) of the same molecule?
Answer: 3.663 ± 0.16 mPa·s

Question: What about the mass density ([1]; 303.15 K) of the same molecule?
Answer: 799.3 ± 1.7 kg/m3

Question: And the viscosity ([1]; 303.15 K)?
Answer: 2.527 ± 0.12 mPa·s

Question: What about the mass density ([1]; 313.15 K) of the same molecule?
Answer: 792.2 ± 1.8 kg/m3

Question: What about the viscosity ([1]; 313.15 K) of the same molecule?
Answer: 1.801 ± 0.084 mPa·s

Question: What about the mass density ([1]; 333.15 K) of the same molecule?
Answer: 778 ± 4 kg/m3

Question: And the viscosity ([1]; 333.15 K)?
Answer: 1.025 ± 0.051 mPa·s

Question: With CCCCCCCCCCCCCCCCCC(=O)O [octadecanoic acid] + CCC(C)O as the molecule, how does the mass density ([2]; 293.15 K, c1 = 0.01) read?
Answer: 806.45 ± 1.5 kg/m3

Question: What about the viscosity ([2]; 293.15 K, c1 = 0.01) of the same molecule?
Answer: 3.611 ± 0.16 mPa·s

Question: And the mass density ([2]; 293.15 K, c1 = 0.05)?
Answer: 806.9 ± 1.6 kg/m3

Question: And the viscosity ([2]; 293.15 K, c1 = 0.05)?
Answer: 3.679 ± 0.16 mPa·s

Question: And the mass density ([2]; 293.15 K, c1 = 0.1)?
Answer: 813.95 ± 8 kg/m3

Question: And the viscosity ([2]; 293.15 K, c1 = 0.1)?
Answer: 3.795 ± 0.17 mPa·s

Question: What about the mass density ([2]; 293.15 K, c1 = 0.15) of the same molecule?
Answer: 810.78 ± 1.6 kg/m3

Question: And the viscosity ([2]; 293.15 K, c1 = 0.15)?
Answer: 3.785 ± 0.17 mPa·s

Question: What about the mass density ([2]; 293.15 K, c1 = 0.2) of the same molecule?
Answer: 811.62 ± 1.5 kg/m3

Question: What about the viscosity ([2]; 293.15 K, c1 = 0.2) of the same molecule?
Answer: 3.799 ± 0.17 mPa·s

Question: And the mass density ([2]; 293.15 K, c1 = 0.3501)?
Answer: 814.68 ± 1.6 kg/m3

Question: What about the viscosity ([2]; 293.15 K, c1 = 0.3501) of the same molecule?
Answer: 4.177 ± 0.18 mPa·s

Question: What about the mass density ([2]; 303.15 K, c1 = 0.01) of the same molecule?
Answer: 798.83 ± 1.7 kg/m3

Question: What about the viscosity ([2]; 303.15 K, c1 = 0.01) of the same molecule?
Answer: 2.499 ± 0.11 mPa·s

Question: And the mass density ([2]; 303.15 K, c1 = 0.05)?
Answer: 799.7 ± 1.7 kg/m3

Question: What about the viscosity ([2]; 303.15 K, c1 = 0.05) of the same molecule?
Answer: 2.531 ± 0.12 mPa·s

Question: And the mass density ([2]; 303.15 K, c1 = 0.1)?
Answer: 806.09 ± 8 kg/m3

Question: What about the viscosity ([2]; 303.15 K, c1 = 0.1) of the same molecule?
Answer: 2.466 ± 0.11 mPa·s

Question: And the mass density ([2]; 303.15 K, c1 = 0.15)?
Answer: 803.5 ± 1.7 kg/m3

Question: What about the viscosity ([2]; 303.15 K, c1 = 0.15) of the same molecule?
Answer: 2.627 ± 0.12 mPa·s

Question: What about the mass density ([2]; 303.15 K, c1 = 0.2) of the same molecule?
Answer: 804.54 ± 1.7 kg/m3

Question: What about the viscosity ([2]; 303.15 K, c1 = 0.2) of the same molecule?
Answer: 2.584 ± 0.12 mPa·s

Question: And the mass density ([2]; 303.15 K, c1 = 0.3501)?
Answer: 806.92 ± 1.7 kg/m3

Question: And the viscosity ([2]; 303.15 K, c1 = 0.3501)?
Answer: 2.919 ± 0.13 mPa·s

Question: And the mass density ([2]; 313.15 K, c1 = 0.01)?
Answer: 792.46 ± 1.8 kg/m3

Question: What about the viscosity ([2]; 313.15 K, c1 = 0.01) of the same molecule?
Answer: 1.766 ± 0.083 mPa·s

Question: What about the mass density ([2]; 313.15 K, c1 = 0.05) of the same molecule?
Answer: 792.65 ± 1.8 kg/m3

Question: What about the viscosity ([2]; 313.15 K, c1 = 0.05) of the same molecule?
Answer: 1.808 ± 0.084 mPa·s

Question: And the mass density ([2]; 313.15 K, c1 = 0.1)?
Answer: 796.45 ± 1.8 kg/m3

Question: What about the viscosity ([2]; 313.15 K, c1 = 0.1) of the same molecule?
Answer: 1.79 ± 0.084 mPa·s

Question: What about the mass density ([2]; 313.15 K, c1 = 0.15) of the same molecule?
Answer: 796.91 ± 1.8 kg/m3

Question: And the viscosity ([2]; 313.15 K, c1 = 0.15)?
Answer: 1.886 ± 0.088 mPa·s

Question: What about the mass density ([2]; 313.15 K, c1 = 0.2) of the same molecule?
Answer: 797.76 ± 1.8 kg/m3

Question: And the viscosity ([2]; 313.15 K, c1 = 0.2)?
Answer: 1.881 ± 0.087 mPa·s

Question: And the mass density ([2]; 313.15 K, c1 = 0.3501)?
Answer: 800.5 ± 1.8 kg/m3

Question: What about the viscosity ([2]; 313.15 K, c1 = 0.3501) of the same molecule?
Answer: 2.017 ± 0.093 mPa·s

Question: And the mass density ([2]; 333.15 K, c1 = 0.05)?
Answer: 782.79 ± 2.1 kg/m3

Question: What about the viscosity ([2]; 333.15 K, c1 = 0.05) of the same molecule?
Answer: 1.09 ± 0.053 mPa·s

Question: And the mass density ([2]; 333.15 K, c1 = 0.1)?
Answer: 783.92 ± 2.2 kg/m3

Question: What about the viscosity ([2]; 333.15 K, c1 = 0.1) of the same molecule?
Answer: 1.1 ± 0.054 mPa·s

Question: What about the mass density ([2]; 333.15 K, c1 = 0.15) of the same molecule?
Answer: 784.23 ± 2.1 kg/m3

Question: What about the viscosity ([2]; 333.15 K, c1 = 0.15) of the same molecule?
Answer: 1.16 ± 0.056 mPa·s

Question: And the mass density ([2]; 333.15 K, c1 = 0.2)?
Answer: 785.41 ± 2.2 kg/m3

Question: What about the viscosity ([2]; 333.15 K, c1 = 0.2) of the same molecule?
Answer: 1.16 ± 0.056 mPa·s

Question: And the mass density ([2]; 333.15 K, c1 = 0.3501)?
Answer: 788.89 ± 2.2 kg/m3

Question: And the viscosity ([2]; 333.15 K, c1 = 0.3501)?
Answer: 1.36 ± 0.065 mPa·s
